Conditions: Liquid, Vibrating tube method

COC(=O)OC [dimethyl carbonate]
mass density [kg/m3]
Conditions	283.15 K	288.15 K	293.15 K	298.15 K	303.15 K	308.15 K	313.15 K	318.15 K	323.15 K	328.15 K
100 kPa	1083.17	1076.43	1069.76	1063.1	1056.41	1049.66	1042.86	1036.04	1029.21	1022.24
5000 kPa	1087.33	1080.8	1074.22	1067.7	1061.17	1054.59	1047.94	1041.3	1034.63	1027.92
10000 kPa	1091.39	1085.02	1078.58	1072.21	1065.82	1059.39	1052.91	1046.44	1039.95	1033.45
15000 kPa	1095.34	1089.07	1082.76	1076.52	1070.29	1064	1057.67	1051.36	1045.04	1038.69
20000 kPa	1099.13	1093	1086.83	1080.7	1074.59	1068.43	1062.22	1056.08	1049.91	1043.71
25000 kPa	1102.79	1096.79	1090.73	1084.74	1078.74	1072.65	1066.6	1060.6	1054.58	1048.53
30000 kPa	1106.39	1100.48	1094.5	1088.62	1082.75	1076.8	1070.82	1064.95	1059.07	1053.14
35000 kPa	1109.85	1104.03	1098.19	1092.39	1086.6	1080.78	1074.93	1069.15	1063.39	1057.57
40000 kPa	1113.17	1107.5	1101.74	1096.04	1090.35	1084.63	1078.87	1073.21	1067.56	1061.87
